Experimental data from PubChem BioAssay (NCI).
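How tested: cells in 96-well plates exposed to compound for 48 hours at five concentrations. GI50: concentration for 50% inhibition of growth. Definition used: TGI = concentration required for complete inhibition of growth.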

Experiments:
Test in all cases: NCI anticancer screen, dose series, 48 h
786-0 renal = test system: 786-0 renal
EKVX NSCLC = test system: EKVX NSCLC
HL-60(TB) leukemia = test system: HL-60(TB) leukemia
HT29 colon = test system: HT29 colon
OVCAR-3 ovarian = test system: OVCAR-3 ovarian
SF-295 CNS = test system: SF-295 CNS
SK-MEL-2 melanoma = test system: SK-MEL-2 melanoma
UACC-257 melanoma = test system: UACC-257 melanoma
MCF7 breast = test system: MCF7 breast
RPMI-8226 leukemia = test system: RPMI-8226 leukemia

SMILES | TGI (786-0 renal) [µM] | TGI (EKVX NSCLC) [µM] | TGI (HL-60(TB) leukemia) [µM] | TGI (HT29 colon) [µM] | TGI (OVCAR-3 ovarian) [µM] | TGI (SF-295 CNS) [µM] | TGI (SK-MEL-2 melanoma) [µM] | TGI (UACC-257 melanoma) [µM] | TGI (MCF7 breast) [µM] | TGI (RPMI-8226 leukemia) [µM] | GI50 (EKVX NSCLC) [µM] | GI50 (HL-60(TB) leukemia) [µM] | GI50 (HT29 colon) [µM] | GI50 (MCF7 breast) [µM] | GI50 (OVCAR-3 ovarian) [µM] | GI50 (RPMI-8226 leukemia) [µM] | GI50 (SF-295 CNS) [µM] | GI50 (SK-MEL-2 melanoma) [µM] | GI50 (UACC-257 melanoma) [µM]
CCN(CC)CCNC(=O)c1ccc([N+](=O)[O-])cc1OC | > 100 | > 100 | > 100 | > 100 | > 100 | > 100 | > 100 | > 100 |  |  |  |  |  |  |  |  |  |  | 
O=[N+]([O-])c1cccc(N=C2c3ccccc3CN2c2cccc([N+](=O)[O-])c2)c1 | > 100 | > 100 |  | > 100 | > 100 | > 100 | > 100 | > 100 | > 100 | > 100 |  |  |  |  |  |  |  |  | 
CC12CC3CC/C(=N\O)C(C1)C3(N1CCOCC1)C/C2=N/O (stereo not given) | > 100 | > 100 | > 100 | > 100 | > 100 | > 100 | > 100 | > 100 | > 100 |  |  |  |  |  |  |  |  |  | 
N=C(/C=C/c1ccc(-c2cn3cc(/C=C/C(=N)N4CCCC4)ccc3n2)cc1)N1CCCC1 | > 100 | > 100 | > 100 |  | > 100 | > 100 | > 100 | > 100 | > 100 | > 100 |  |  |  |  |  |  |  |  | 
O=C(c1ccccc1)c1nn(-c2ccc(Cl)cc2)c2nc3nc(-c4ccccc4)cc(=O)n3nc12 |  | > 100 | 14.8 | > 100 | 77.8 | 63.1 | 70.4 | > 100 | > 100 | > 100 | 30.3 | 3.48 | 33.1 | 40.9 | 24.5 | 28.8 | 23.5 | 26.3 | 70.7
Cc1ccc(S(=O)(=O)N2CCCSCCSCCCSCC2)cc1 | > 100 | > 100 | > 100 | > 100 | > 100 | > 100 |  | > 100 | > 100 |  |  |  |  |  |  |  |  |  | 
O=c1[nH]c2cc(C(F)(F)F)ccc2nc1Cc1ccccc1 | > 100 | > 100 | > 100 | > 100 |  | > 100 | > 100 | > 100 | > 100 | > 100 |  |  |  |  |  |  |  |  | 
O=S(=O)(c1cc(Cl)ccc1Cl)N1CCN(c2ccc(Cl)c(Cl)c2)CC1 | 34.3 | > 100 | > 100 | > 100 | 38.5 | 50.5 |  | 92.7 | > 100 | > 100 |  |  |  |  |  |  |  |  | 
COc1ccc2c(c1)c1nn(CCN(C)C)c3ccc4c(=O)n(CCN(C)C)c(=O)n2c4c13 | 0.136 | 0.405 | 0.34 |  | 0.255 | 0.224 | 0.192 | 0.717 | 0.198 | < 0.0192 |  |  |  |  |  |  |  |  | 
COc1ccc(/C=C2\CN(C(=O)CCN3CCC(=NO)CC3)C/C(=C\c3ccc(OC)cc3)C2=O)cc1 |  | 17.6 | 8.27 | 4.45 | 3.56 | 7.69 | 30.4 | 7.57 | 4.86 | 3.79 | 4.04 | 2.8 | 2.04 | 0.619 | 1.89 | 0.648 | 2.77 | 11.7 | 2.65
CC(=O)Nc1ccc(Nc2cc(=O)n(C)c(=O)[nH]2)cc1 | > 100 | > 100 |  | > 100 | > 100 | > 100 | > 100 | > 100 | > 100 | > 100 |  |  |  |  |  |  |  |  | 
Cc1ccc(/C=C2\CN(C)CC3C(c4ccc(C)cc4)=C(C#N)C(=O)NC23)cc1 (stereo not given) | > 50 | > 50 |  | > 50 | > 50 | > 50 | > 50 | > 50 | > 50 | > 50 |  |  |  |  |  |  |  |  | 
CC(=O)Oc1ccccc1[C@H]1CC(=O)C[C@H](c2ccccc2OC(C)=O)C12C(=O)c1ccccc1C2=O |  |  | > 100 | > 100 | 89.2 | > 100 | 66.2 |  |  | > 100 |  |  |  |  |  |  |  |  | 
COC(=O)[C@@H]1C=C[C@@H](C#N)n2c(=O)n(-c3ccccc3)c(=O)n21 | 84.7 | > 100 |  | 93.2 | 58.9 | > 100 |  | > 100 | > 100 | 73.3 |  |  |  |  |  |  |  |  | 
CCOc1ccc(N2C(=O)C3c4[nH]c5ccccc5c4C4CCC(C(C)(C)C)CC4C3C2=O)cc1 (stereo not given) | > 100 | > 100 | > 100 | > 100 |  | > 100 |  | > 100 |  | > 100 |  |  |  |  |  |  |  |  | 
O=C(NCCN1C(=O)CN=C(c2ccc(Cl)cc2)c2cc(Cl)ccc21)OCc1ccccc1 | 28.9 | 66.6 | 38.1 | 31.8 | 26 | 29.4 | 36 | 34.1 |  | 53.9 |  |  |  |  |  |  |  |  | 
CC(C)C1CC=NN1C(=O)OC(C)(C)C (stereo not given) | > 100 | > 100 | > 100 | > 100 | > 100 | > 100 |  | > 100 | > 100 | > 100 |  |  |  |  |  |  |  |  | 
NS(=O)(=O)c1ccc(NC(=O)c2cc([N+](=O)[O-])cc([N+](=O)[O-])c2)cc1 | > 100 |  | 97.4 | > 100 | 84.9 |  | > 100 | 32 | 53.9 | > 100 |  |  |  |  |  |  |  |  | 
Cc1c(C(=O)CSc2nc3ccc([N+](=O)[O-])cc3[nH]2)c(=O)n(-c2ccccc2)n1C | > 100 |  | > 100 | > 100 | > 100 | > 100 | > 100 | > 100 |  | > 100 |  |  |  |  |  |  |  |  | 
Oc1c(C2=NNC(c3cccs3)C2)ccc2ccccc12 (stereo not given) | > 100 |  |  | 40 | 43.5 | 57.6 | > 100 | > 100 | 51.7 | 77.9 |  |  |  |  |  |  |  |  | 
COC(=O)c1ccc2c(c1)CC1(C2)Cc2cc3c(c(C(=O)OC)c2C1)CCCC3 (stereo not given) | > 100 | > 100 | > 100 | > 100 | > 100 | > 100 |  | > 100 | > 100 | > 100 |  |  |  |  |  |  |  |  | 
COc1cc(C2CC(c3cccc(Nc4ccncc4)c3)=NN2c2cc(Cl)cc(Cl)c2)cc(OC)c1OC (stereo not given) |  |  | 3.65 |  | 3.21 |  | 4.13 |  |  |  |  | 1.53 |  |  | 1.73 |  |  | 2.05 | 
Cc1ccc(S(=O)(=O)NC(=O)NC(CO)C(=O)O)cc1 (stereo not given) | > 100 |  | > 100 | > 100 |  | > 100 | > 100 | > 100 | > 100 | > 100 |  |  |  |  |  |  |  |  | 
